Tests used:
[1] = test system: mouse model intratibially transplanted with a PC-3 human prostate cancer cell line; experiment: Abnormal bone formation and bone resorption in mouse model intratibially transplanted with PC-3 cells (μCT); assay type: in vivo; conditions: PC-3 in mouse tibia, 200 mg/kg/day orally every day for 10 days
Protocol: Inhibitory Effect on the Abnormal Bone Formation and Bone Resorption in the Mouse Model Intratibially Transplanted with a PC-3 Human Prostate Cancer Cell Line
The PC-3 human prostate cancer cell line was transplanted in the mouse tibia at 2×10^6 cells/15 μL. On the following day of transplantation, the mice were grouped so that the average body weight of the mice in each group was equal, and the compound IA was administered orally at 200 mg/kg/day every day for 10 days. On Day 11 after transplantation, the graft site was imaged by μCT and bone lesions were evaluated.

[2] = test system: mouse model intratibially transplanted with an A549-luc-BM1 human lung cancer cell line; experiment: Abnormal bone formation and bone resorption in mouse model intratibially transplanted with A549-luc-BM1 cells (μCT); assay type: in vivo; conditions: A549-luc-BM1 in mouse tibia
Source text: Inhibitory Effect on the Abnormal Bone Formation and Bone Resorption in the Mouse Model Intratibially Transplanted an A549-Luc-BM1 Human Lung Cancer Cell Line The A549 human lung cancer cell line in which the luciferase gene was transfected was transplanted in the left ventricle of nude mice, whereby the A549-luc-BM1 lung cancer cell line, which selectively metastasizes to and proliferates in the bone, was established. The cells thus obtained were transplanted in the mouse tibia at 2×10^6 cells/15 μL. On Day 7 after transplantation, the luciferase activity in the graft site was measured by an in-vivo imaging system. Subsequently, the mice were grouped so that the average luciferase activity of each group was equal, and the compound IA was administered orally at 200 mg/kg/day every day for 28 days. The treatment control group received subcutaneous administration of zoledronic acid, which is the third-generation bisphosphonate preparation, at 0.2 mg/kg/day twice a week. For the evaluation of bone lesions, the graft site was imaged by μCT on Day 36 after transplantation.

For `CNC(=O)c1cc2c(Oc3ccc(NC(=S)NC(=O)Cc4ccccc4)cc3F)ccnc2cc1OC` [Compound IA, 4-[2-fluoro-4-[[[(2-phenylacetyl)amino]thioxomethyl]amino]-phenoxy]-7-methoxy-N-methyl-6-quinolinecarboxamide], the “bone mass (inhibition of accelerated metabolic bone destruction and formation of abnormal brittle bone)” value [1] was “maintained a normal level of bone mass”, the “death and body weight reduction” value [1] was “without causing death or reducing body weight” and the “abnormal bone formation in the bone at the graft site (μCT, FIG. 1)” value ([1]; μCT on Day 11 after transplantation) was “evidently inhibited the abnormal bone formation”. The “inhibitory effect on abnormal bone metabolism (bone resorption and bone formation) compared with zoledronic acid” value ([2]; 200 mg/kg/day orally for 28 days) was “better inhibitory effect on abnormal bone metabolism (bone resorption and bone formation) than zoledronic acid” and the “bone destruction and deformation at the graft site (μCT, FIG. 2)” value ([2]; compound IA 200 mg/kg/day orally for 28 days, zoledronic acid 0.2 mg/kg/day s.c. twice a week, μCT on Day 36) was “remarkably inhibited bone destruction and deformation”.

From patent US9149471B2, “Therapeutic agent for osteoporosis” (NATIONAL UNIV. CORP. TOKYO UNIV. OF AG. AND TECH, priority 2013, dated 2015)
